From PubChem BioAssay AID1845210 (Molecular Pharmacology Branch, DTP, NCI, 2023)

Tested on: NCI-H226 complex tumor spheroids, viability
Assay: Anticancer human tumor NCI-H226 cell line growth inhibition;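 also: spheroids exposed to compound for 7 days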;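 as to viability, T/C: 100% = DMSO vehicle control viability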
Settings: for IC50: curve of first compound; for viability, T/C: stronger effect = lower value
Description: Multicellular complex tumor spheroid response to DNA repair inhibitors in combination with DNA-damaging drugs
This study explores the anticancer activities of DNA-damaging drugs and inhibitors of DNA damage repair, both as single agents and in combinations. Complex tumor spheroids comprised of malignant cells, endothelial cells and mesenchymal stem cells served as an in vitro model for human solid tumors. This model system incorporates physiologically relevant features and patient-derived or established malignant cell lines with clinically relevant genetic alterations from many tumor types. Twenty-six patient-derived or established malignant cell lines were evaluated representing sarcoma, melanoma, small cell lung cancer (SCLC), non-small cell lung cancer (NSCLC), as well as bladder, ovarian and pancreatic cancers. The concentration ranges selected for each drug and investigational agent were based upon clinically achievable concentrations if the clinical Cmax of the agent was known.
Compounds. The drugs and compounds olaparib (NSC753686), talazoparib (NSC767125), berzosertib (NSC777718), elimusertib (NSC800525), nedisertib (NSC802822), VX-984 (NSC792969), AZD-1390 (NSC803789), temozolomide (NSC362856), topotecan (NSC609699), trabectedin (NSC813783), staurosporine (NSC755774), and gemcitabine (NSC613327) were obtained from the National Cancer Institute (NCI) Developmental Therapeutics Program Chemical Repository. The FDA-approved anticancer drug set is available from the Developmental Therapeutics Program at https://dtp.cancer.gov/organization/dscb/obtaining/available_plates.htm. […] The stock solutions were prepared in dimethyl sulfoxide (DMSO, Sigma-Aldrich, St. Louis, MO, cat. D2650) at 400-fold the tested concentration and stored at -70 degrees C. Prior to their use, the stock solutions were diluted in fresh medium and the final DMSO concentration in the assay was 0.25% (v/v). All drugs and investigational agents were tested over a range starting from a high concentration at or near the clinical Cmax and decreasing in half-log increments. If the clinical Cmax for an agent had not been determined, the highest concentration tested was 10 microM.
Cell Lines. The patient-derived cancer cell (PDC) lines: 156681-154-R-J1-PDC, 283228-195-R-J1-PDC, 287954-098-R-J1-PDC, 292921-168-R-J2-PDC, 349418-098-R-PDC, 425362-245-T-J1-PDC, 556581-035-R-J1-PDC, and BL0293-F563-PDC were received from the NCI Patient-Derived Models Repository (PDMR, https://pdmr.cancer.gov). The established cell lines HS-SY-2 (RRID:CVCL_8719), MPNST, and SYO-1 (RRID:CVCL_7146) were obtained from the Sloan Kettering Institute. The alveolar soft parts sarcoma cell line ASPS-1 (RRID:CVCL_S738) was established at the NCI and grown from internal seed stocks. The following established cell lines were purchased from the American Type Culture Collection (ATCC, Manassas, VA): G-401 (ATCC, cat. CRL-1441, RRID:CVCL_0270), SW982 (ATCC, cat. HTB-93, RRID:CVCL_1734), VA-ES-BJ (ATCC, cat. CRL-2138, RRID:CVCL_1785), NCI-H719 (ATCC, cat. CRL-5837, RRID:CVCL_1582), NCI-H196 (ATCC, cat. CRL-5823, RRID:CVCL_1509), NCI-H841 (ATCC, cat. CRL-5845, RRID:CVCL_1595), NCI-H1618 (ATCC, cat. CRL-5879, RRID:CVCL_1480), NCI-H1876 (ATCC, cat. CRL-5902, RRID:CVCL_1503), DMS 114 (ATCC, cat. CRL-2066; RRID:CVCL_1174), NCI-H211 (ATCC, cat. CRL-5824; RRID:CVCL_1529), and SW 1271 (ATCC, cat. CRL-2177, RRID:CVCL_1716). The small cell lung cancer cell line COR-L88 was purchased from Sigma-Aldrich (cat. 92031917-1VL, RRID:CVCL_1141). The non-small cell lung cancer cell lines NCI-H226 (RRID:CVCL_1544) and NCI-H322M (RRID:CVCL_1557) were established at the NCI and grown from internal seed stocks. Pooled donor human umbilical vein endothelial cells (HUVEC, Lonza, cat. CC-2519) and human mesenchymal stem cells (hMSC, Lonza, cat. PT-2501) were purchased from Lonza (Walkersville, MD).
Cell Culture. All cells were maintained in an incubator at 37 degrees C and 5% CO2 with 95% humidity. […]

[1] = second compound 0.003 µM, first compound 0.0316 µM
[2] = second compound 0.003 µM, first compound 0.1 µM
[3] = second compound 0.003 µM, first compound 0.316 µM
[4] = second compound 0.003 µM, first compound 1 µM
[5] = second compound 0.003 µM, first compound 3.16 µM
[6] = second compound 0.003 µM, first compound 10 µM
[7] = second compound 0.00949 µM, first compound 0.0316 µM
[8] = second compound 0.00949 µM, first compound 0.1 µM
[9] = second compound 0.00949 µM, first compound 0.316 µM
[10] = second compound 0.00949 µM, first compound 1 µM
[11] = second compound 0.00949 µM, first compound 3.16 µM
[12] = second compound 0.00949 µM, first compound 10 µM
[13] = second compound 0.03 µM, first compound 0.0316 µM
[14] = second compound 0.03 µM, first compound 0.1 µM
[15] = second compound 0.03 µM, first compound 0.316 µM
[16] = second compound 0.03 µM, first compound 1 µM
[17] = second compound 0.03 µM, first compound 3.16 µM
[18] = second compound 0.03 µM, first compound 10 µM
[19] = second compound 0.0949 µM, first compound 0.0316 µM
[20] = second compound 0.0949 µM, first compound 0.1 µM
[21] = second compound 0.0949 µM, first compound 0.316 µM
[22] = second compound 0.0949 µM, first compound 1 µM
[23] = second compound 0.0949 µM, first compound 3.16 µM
[24] = second compound 0.0949 µM, first compound 10 µM
[25] = second compound 0.3 µM, first compound 0.0316 µM
[26] = second compound 0.3 µM, first compound 0.1 µM
[27] = second compound 0.3 µM, first compound 0.316 µM
[28] = second compound 0.3 µM, first compound 1 µM
[29] = second compound 0.3 µM, first compound 3.16 µM
[30] = second compound 0.3 µM, first compound 10 µM

| SMILES | IC50 (second compound 0.003 µM) [µM] | IC50 (second compound 0.00949 µM) [µM] | IC50 (second compound 0.03 µM) [µM] | IC50 (second compound 0.0949 µM) [µM] | IC50 (second compound 0.3 µM) [µM] | viability, T/C [1] [%] | viability, T/C [2] [%] | viability, T/C [3] [%] | viability, T/C [4] [%] | viability, T/C [5] [%] | viability, T/C [6] [%] | viability, T/C [7] [%] | viability, T/C [8] [%] | viability, T/C [9] [%] | viability, T/C [10] [%] | viability, T/C [11] [%] | viability, T/C [12] [%] | viability, T/C [13] [%] | viability, T/C [14] [%] | viability, T/C [15] [%] | also measured |
| --- | --- | --- | --- | --- | --- | --- | --- | --- | --- | --- | --- | --- | --- | --- | --- | --- | --- | --- | --- | --- | --- |
| CC1COCCN1c1cc(-c2ccnn2C)c2ccnc(-c3ccn[nH]3)c2n1 (stereo not given) + CC[C@@]1(O)C(=O)OCc2c1cc1n(c2=O)Cc2cc3c(CN(C)C)c(O)ccc3nc2-1 | 1.04 | 1.09 | 0.823 | 0.814 | 0.518 | 97.2 | 81.5 | 74 | 47.6 | 39.2 | 36.1 | 93.8 | 85.1 | 69.3 | 52.5 | 36.1 | 33.4 | 83.1 | 76.3 | 63.6 | viability, T/C [16]: 48.1%; viability, T/C [17]: 36.8%; viability, T/C [18]: 37.9%; viability, T/C [19]: 82.2%; viability, T/C [20]: 71.3%; viability, T/C [21]: 65.1%; viability, T/C [22]: 46.1%; viability, T/C [23]: 37.4%; viability, T/C [24]: 34.9%; viability, T/C [25]: 71.2%; viability, T/C [26]: 66.9%; viability, T/C [27]: 56.8%; viability, T/C [28]: 41.4%; viability, T/C [29]: 36.3%; viability, T/C [30]: 38.1% |
| COc1cc(C)[nH]c(=O)c1CN1CCc2c(Cl)cc(C(OC)C3COC3)c(Cl)c2C1=O (stereo not given) + CC[C@@]1(O)C(=O)OCc2c1cc1n(c2=O)Cc2cc3c(CN(C)C)c(O)ccc3nc2-1 | > 10 | > 10 | > 10 | > 10 | > 10 | 93.7 | 123 | 110 | 122 | 112 | 98.5 | 88.6 | 102 | 100 | 95.8 | 99.2 | 97.3 | 86.4 | 87 | 80.6 | viability, T/C [16]: 92.7%; viability, T/C [17]: 92.6%; viability, T/C [18]: 87.4%; viability, T/C [19]: 97.3%; viability, T/C [20]: 93.1%; viability, T/C [21]: 86.4%; viability, T/C [22]: 92.9%; viability, T/C [23]: 88.3%; viability, T/C [24]: 81.6%; viability, T/C [25]: 71.4%; viability, T/C [26]: 73.3%; viability, T/C [27]: 72%; viability, T/C [28]: 75.2%; viability, T/C [29]: 69.9%; viability, T/C [30]: 72.9% |
| Cc1cc(C)c(CNC(=O)c2cc(-c3ccc(CN4CCOCC4)cc3)cc3c2cnn3C2CCCC2)c(=O)[nH]1 + CC[C@@]1(O)C(=O)OCc2c1cc1n(c2=O)Cc2cc3c(CN(C)C)c(O)ccc3nc2-1 | > 10 | > 10 | > 10 | > 10 | > 10 | 101 | 96.8 | 98.3 | 85.3 | 95.7 | 108 | 87.2 | 88.8 | 92.4 | 82.9 | 78.6 | 96.3 | 91.8 | 78.3 | 87.6 | viability, T/C [16]: 88.9%; viability, T/C [17]: 79.7%; viability, T/C [18]: 95.3%; viability, T/C [19]: 70.7%; viability, T/C [20]: 72.9%; viability, T/C [21]: 71%; viability, T/C [22]: 77.5%; viability, T/C [23]: 76.1%; viability, T/C [24]: 106%; viability, T/C [25]: 64%; viability, T/C [26]: 62.4%; viability, T/C [27]: 67%; viability, T/C [28]: 68.5%; viability, T/C [29]: 79.8%; viability, T/C [30]: 95.2% |
| [2H]c1nc(C)nc([2H])c1-c1cc(NC[C@@H](C)c2cccc3c(C(=O)NC)ccnc23)ncn1 + CC[C@@]1(O)C(=O)OCc2c1cc1n(c2=O)Cc2cc3c(CN(C)C)c(O)ccc3nc2-1 | > 10 | > 10 | > 10 | > 10 | > 10 | 89.6 | 93.2 | 92.6 | 82 | 79.5 | 88.1 | 86.8 | 88.3 | 93 | 86.7 | 84.3 | 88.5 | 79 | 82 | 84.3 | viability, T/C [16]: 79%; viability, T/C [17]: 81.5%; viability, T/C [18]: 73%; viability, T/C [19]: 88.8%; viability, T/C [20]: 89%; viability, T/C [21]: 85.1%; viability, T/C [22]: 83%; viability, T/C [23]: 80.5%; viability, T/C [24]: 86.5%; viability, T/C [25]: 59.8%; viability, T/C [26]: 70.4%; viability, T/C [27]: 65.5%; viability, T/C [28]: 71.9%; viability, T/C [29]: 59.5%; viability, T/C [30]: 60.7% |
